Source: patent publication US4350692A, “3,7-Disubstituted-3-cephem-4-carboxylic acids” (Fujisawa Pharmaceutical Co., Ltd., priority 1976, dated 1982)
Values after ≈ are worked out from the molar mass of the structure shown. Where two headings read alike, the source gives them in different places.

System: Pseudomonus aeruginosa NCTC-10490
Experiment: In vitro activity, two-fold agar-plate dilution method, minimal inhibitory concentration (MIC)
Assay type: cell-based
Settings: read-out: MIC (minimal inhibitory concentration)
[1] = heart infusion agar (HI-agar), overnight culture in Trypticase-soy broth (10^8 viable cells per ml.), incubation at 37° C. for 20 hours

| SMILES | MIC [1] [µg/mL] | MIC (20 h) [µg/mL] |
| --- | --- | --- |
| Cn1nnnc1SCC1=C(C(=O)O)N2C(=O)[C@@H](NC(=O)[C@H](NC(=O)c3cc(Cl)ccc3O)c3ccccc3)[C@H]2SC1 [Example 1, 7-[D-N-(2-hydroxy-5-chlorobenzoyl)-2-phenylglycinamido]-3-(1-methyl-1H-tetrazol-5-ylthiomehyl)-3-cephem-4-carboxylic acid] | – | 1.56 (≈ 2.53 µM) |
| Cn1nnnc1SCC1=C(C(=O)O)N2C(=O)C(NC(=O)[C@H](NC(=O)c3cc(C#N)c(Cl)cc3O)c3ccccc3)C2SC1 (stereo partly drawn) [Example 6, 7-[D-N-(2-hydroxy-4-chloro-5-cyanobenzoyl)-2-phenylglycinamido]-3-(1-methyl-1H-tetrazol-5-ylthiomethyl)-3-cephem-4-carboxylic acid] | – | 1.56 (≈ 2.43 µM) |
| Cn1nnnc1SCC1=C(C(=O)O)N2C(=O)C(NC(=O)[C@H](NC(=O)c3cc([N+](=O)[O-])cc([N+](=O)[O-])c3O)c3ccccc3)C2SC1 (stereo partly drawn) [Example 9, 7-[D-N-(2-hydroxy-3,5-dinitrobenzoyl)-2-phenylglycinamido]-3-(1-methyl-1H-tetrazol-5-ylthiomethyl)-3-cephem-4-carboxylic acid] | – | 1.56 (≈ 2.32 µM) |
| Cn1nnnc1SCC1=C(C(=O)O)N2C(=O)C(NC(=O)[C@H](NC(=O)c3ccc(O)cc3O)c3ccccc3)C2SC1 (stereo partly drawn) [Example 25, 7-[D-N-(2,4-dihydroxybenzoyl)-2-phenylglycinamido]-3-(1-methyl-1H-tetrazol-5-ylthiomethyl)-3-cephem-4-carboxylic acid] | – | 1.56 (≈ 2.61 µM) |
| CN1CCN(S(=O)(=O)c2ccc(O)c(C(=O)N[C@@H](C(=O)NC3C(=O)N4C(C(=O)O)=C(CSc5nnnn5C)CSC34)c3ccccc3)c2)CC1 (stereo partly drawn) [Example 52, 7-[D-N-{2-hydroxy-5-(4-methyl-1-piperazinylsulfonyl)benzoyl}-2-phenylglycinamido]-3-(1-methyl-1H-tetrazol-5-ylthiomethyl)-3-cephem-4-carboxylic acid] | – | 1.56 (≈ 2.1 µM) |
| CCOC(=O)CS(=O)(=O)NCc1nnc(SCC2=C(C(=O)O)N3C(=O)C(NC(=O)[C@H](NC(=O)c4cc(Cl)cc(Cl)c4O)c4ccccc4)C3SC2)s1 (stereo partly drawn) [Example 53, 7-[D-N-(2-hydroxy-3,5-dichlorobenzoyl)-2-phenylglycinamido]-3-(5-ethoxycarbonylmesylaminomethyl-1,3,4-thiadiazol-2-ylthiomethyl)-3-cephem-4-carboxylic acid] | – | 1.56 (≈ 1.88 µM) |
| CC(=O)OCC1=C(C(=O)O)N2C(=O)[C@@H](NC(=O)[C@H](NC(=O)COc3ccc(Cl)cc3C(=O)c3ccccc3)c3ccccc3)[C@H]2SC1 [Example 67, 7-[D-N-{2-(2-benzoyl-4-chlorophenoxy)acetyl}-2-phenylglycinamido]cephalosporanic acid] | – | 1.56 (≈ 2.3 µM) |
| CC(=O)OCC1=C(C(=O)O)N2C(=O)[C@@H](NC(=O)[C@H](NC(=O)COc3ccc(Cl)cc3C(=O)c3ccc(NC(=O)CSCC(=O)O)cc3)c3ccccc3)[C@H]2SC1 [Example 69, 7-[D-N-[2-{2-(4-carboxymethylthioacetamidobenzoyl)-4-chlorophenoxy}acetyl]-2-phenylglycinamido]cephalosporanic acid] | 6.25 (≈ 7.57 µM) | – |

More lines, main results first:

| MIC [1] [µg/mL] | SMILES | MIC (20 h) [µg/mL] |
| --- | --- | --- |
| 0.78 (≈ 1.2 µM) | Cn1nnnc1SCC1=C(C(=O)O)N2C(=O)C(NC(=O)[C@H](NC(=O)c3cc(Cl)cc(Cl)c3O)c3ccccc3)C2SC1 (stereo partly drawn) [Example 2, 7-[D-N-(2-hydroxy-3,5-dichlorobenzoyl)-2-phenylglycinamido]-3-(1-methyl-1H-tetrazol-5-ylthiomethyl)-3-cephem-4-carboxylic acid] | – |
| 0.78 (≈ 1.24 µM) | Cn1nnnc1SCC1=C(C(=O)O)N2C(=O)C(NC(=O)[C@H](NC(=O)c3cc([N+](=O)[O-])ccc3O)c3ccccc3)C2SC1 (stereo partly drawn) [Example 3, 7-[D-N-(2-hydroxy-5-nitrobenzoyl)-2-phenylglycinamido]-3-(1-methyl-1H-tetrazol-5-ylthiomethyl)-3-cephem-4-carboxylic acid] | – |
| 0.78 (≈ 1.18 µM) | Cn1nnnc1SCC1=C(C(=O)O)N2C(=O)C(NC(=O)[C@H](NC(=O)c3cc(S(N)(=O)=O)ccc3O)c3ccccc3)C2SC1 (stereo partly drawn) [Example 4, 7-[D-N-(2-hydroxy-5-sulfamoylbenzoyl)-2-phenylglycinamido]-3-(1-methyl-1H-tetrazol-5-ylthiomethyl)-3-cephem-4-carboxylic acid] | – |
| 0.78 (≈ 1.25 µM) | CC(=O)c1ccc(O)c(C(=O)N[C@@H](C(=O)NC2C(=O)N3C(C(=O)O)=C(CSc4nnnn4C)CSC23)c2ccccc2)c1 (stereo partly drawn) [Example 5, 7-[D-N-(2-hydroxy-5-acetylbenzoyl)-2-phenylglycinamido]-3-(1-methyl-1H-tetrazol-5-ylthiomethyl)-3-cephem-4-carboxylic acid] | – |
| 0.78 (≈ 1.18 µM) | Cn1nnnc1SCC1=C(C(=O)O)N2C(=O)C(NC(=O)[C@H](NC(=O)c3cc(C(N)=O)c(Cl)cc3O)c3ccccc3)C2SC1 (stereo partly drawn) [Example 7, 7-[D-N-(2-hydroxy-4-chloro-5-carbamoylbenzoyl)-2-phenylglycinamido]-3-(1-methyl-1H-tetrazol-5-ylthiomethyl)-3-cephem-4-carboxylic acid] | – |
| 0.78 (≈ 1.12 µM) | Cn1nnnc1SCC1=C(C(=O)O)N2C(=O)C(NC(=O)[C@H](NC(=O)c3cc(S(N)(=O)=O)c(Cl)cc3O)c3ccccc3)C2SC1 (stereo partly drawn) [Example 8, 7-[D-N-(2-hydroxy-4-chloro-5-sulfamoylbenzoyl)-2-phenylglycinamido]-3-(1-methyl-1H-tetrazol-5-ylthiomethyl)-3-cephem-4-carboxylic acid] | – |
| 12.5 (≈ 20.4 µM) | Cc1nnc(SCC2=C(C(=O)O)N3C(=O)C(NC(=O)[C@H](NC(=O)[C@H](O)c4ccccc4)c4ccccc4)C3SC2)s1 (stereo partly drawn) [Example 56, 7-[D-N-(D-mandeloyl)-2-phenylglycinamido]-3-(5-methyl-1,3,4-thiadiazol-2-ylthiomethyl)-3-cephem-4-carboxylic acid] | – |
| 6.25 (≈ 9.18 µM) | Cn1nnnc1SCC1=C(C(=O)O)N2C(=O)C(NC(=O)[C@H](NC(=O)COc3cc(Cl)cc(Cl)c3O)c3ccccc3)C2SC1 (stereo partly drawn) [Example 63, 7-[D-N-{2-(2-hydroxy-3,5-dichlorophenoxy)acetyl}-2-phenylglycinamido]-3-(1-methyl-1H-tetrazol-5-ylthiomethyl)-3-cephem-4-carboxylic acid] | – |
